In article PMC7442609 (ACS chemical biology, 2020):
Read-outs that look alike come from different tables or passages of the source. Peptide text beside a SMILES is read from it. * marks the point of attachment. Cbz = O=C(OCc1ccccc1)*

What was measured:
[1] = system: RAW-Difluo mLC3 cells; experiment: RAW-Difluo mLC3 autophagy reporter assay; assay type: cell-based, murine; conditions: 16 hours
[2] = system: RFP-LC3-THP-1 cells infected with Mtb; assay type: cell-based, human; conditions: 16 hr at 10 μM, TSR 2.5 μM
[3] = system: THP-1 cells; assay type: cell-based, human; conditions: uninfected THP-1 cells
[4] = system: FoxM1; assay type: cell-based, murine; conditions: 5 μM, 16 hours, western blot
[5] = system: Parkin; assay type: cell-based, murine; conditions: 5 μM, 16 hr, western blot
[6] = system: PINK1; assay type: cell-based, murine; conditions: 5 μM, 16 hr, western blot
[7] = molecular target: T1, proteasomes (Mus musculus, UniProt O55234+P70195+Q60692); experiment: Ub-R-GFP reporter assay of proteasomal activity in cells; assay type: cell-based, murine
T1 sequence (O55234 60-264): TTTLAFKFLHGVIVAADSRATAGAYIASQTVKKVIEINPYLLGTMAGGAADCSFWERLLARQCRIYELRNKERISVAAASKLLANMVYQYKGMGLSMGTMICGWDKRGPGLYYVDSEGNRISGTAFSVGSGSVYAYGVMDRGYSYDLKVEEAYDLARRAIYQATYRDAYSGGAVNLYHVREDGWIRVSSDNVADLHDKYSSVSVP
T1 sequence (Q60692 1-238): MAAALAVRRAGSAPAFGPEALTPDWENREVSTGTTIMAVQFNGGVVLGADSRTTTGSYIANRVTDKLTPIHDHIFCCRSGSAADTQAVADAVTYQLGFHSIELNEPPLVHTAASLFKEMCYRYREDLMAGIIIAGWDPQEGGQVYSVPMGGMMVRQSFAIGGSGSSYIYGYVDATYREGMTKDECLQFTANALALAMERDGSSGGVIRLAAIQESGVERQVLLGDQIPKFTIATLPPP
T1 sequence (P70195 44-277): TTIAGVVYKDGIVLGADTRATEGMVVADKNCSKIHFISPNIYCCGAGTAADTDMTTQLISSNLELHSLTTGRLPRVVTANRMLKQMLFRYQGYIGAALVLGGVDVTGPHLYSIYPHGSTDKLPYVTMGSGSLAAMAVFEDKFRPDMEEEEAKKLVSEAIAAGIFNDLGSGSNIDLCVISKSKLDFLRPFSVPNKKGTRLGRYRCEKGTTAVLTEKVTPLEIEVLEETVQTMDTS

[8] = molecular target: 20S proteasome (Homo sapiens, UniProt P28072+P28074+Q99436); experiment: Proteasome-Glo assay on purified 20S proteasome; assay type: biochemical; conditions: 1 hr; for IC50 caspase-like activity / IC50 chymotrypsin-like activity / IC50 trypsin-like activity: purified 20S proteasome
[9] = system: Mtb H37Rv; experiment: Resazurin microtiter assay; assay type: cell-based, Mycobacterium tuberculosis
[10] = system: luxBCADE-expressing H37Rv Mtb in THP-1 cells; assay type: cell-based, Mycobacterium tuberculosis; conditions: for effect of WRT on anti-Mtb activity in macrophages: THP-1 cells, + WRT (15 μM), 7 days
[11] = system: EIF-2α; assay type: cell-based, murine; conditions: 5 μM, 16 hours, western blot

| Compound | induction of autophagy (in words) [1] | autophagosomes (RFP-LC3 puncta) per Mtb infected cell [2] | FoxM1 protein levels [4] | inhibition of intracellular Mtb growth [10] | effect of WRT on anti-Mtb activity in macrophages [10] | further results |
| --- | --- | --- | --- | --- | --- | --- |
| C=C(NC(=O)C(=C)NC(=O)c1csc(-c2ccc3c(n2)-c2csc(n2)-c2csc(n2)C2C(C)CC(O)N2C(=O)C(Cc2ccc(O)cc2)N=C(O)C2CSC(=N2)C(Cc2ccccc2)N=C(O)c2csc(n2)C(CC(N)=O)N=C(O)c2nc-3oc2C)n1)C(=O)O (stereo not drawn) [GE, GE37468] | induced autophagy at concentrations comparable to TSR | – | – | – | – | – |
| COC[C@H]1OC(=O)c2coc3c2[C@@]1(C)C1=C(C3=O)[C@@H]2CCC(=O)[C@@]2(C)C[C@H]1OC(C)=O [WRT, wortmannin, reference compound] | – | < 5 | – | – | – | effect on thiopeptide-induced autophagy [3]: abrogates thiopeptide-induced autophagy |
| CC(C)C[C@@H](C=O)NC(=O)[C@H](CC(C)C)NC(=O)[C@H](CC(C)C)NC(=O)OCc1ccccc1 [MG-132] (Cbz-Leu-Leu-Leu-aldehyde) | – | – | significant decrease in FoxM1 protein levels | – | – | Parkin expression level [5]: little to no increase over basal levels; PINK1 expression level [6]: little to no increase over basal levels |
| C=C(NC(=O)C(=C)NC(=O)c1csc(C2=N[C@@H]3c4csc(n4)[C@H]4NC(=O)c5csc(n5)[C@H]([C@](C)(O)[C@@H](C)O)NC(=O)[C@H]5CSC(=N5)/C(=C/C)NC(=O)[C@H]([C@@H](C)O)NC(=O)c5csc(n5)[C@]3(CC2)NC(=O)[C@H](C)NC(=O)C(=C)NC(=O)[C@H](C)NC(=O)[C@H]([C@@H](C)CC)N[C@@H]2C=Cc3c([C@H](C)O)cc(nc3[C@H]2O)C(=O)O[C@@H]4C)n1)C(N)=O [TSR, thiostrepton] | potently induced autophagy | significantly increased the number of RFP-LC3 puncta per cell | significant decrease in FoxM1 protein levels | potent inhibitory effects on intracellular Mtb growth | no significant effect on their anti-Mtb activity in macrophages | EC50 [7]: 1450 nM; direct inhibition of reconstituted 20S proteasome [8]: directly inhibited the proteasome; IC50 caspase-like activity [8]: substantially less active; IC50 chymotrypsin-like activity [8]: sub-micromolar; IC50 trypsin-like activity [8]: sub-micromolar; activity against Mtb in vitro (REMA, in words) [9]: active against Mtb in vitro at IC50s comparable to kanamycin |
| thiocillin III [TCIII] | also induced autophagy | significantly increased the number of RFP-LC3 puncta per cell | – | potent inhibitory effects on intracellular Mtb growth | no significant effect on their anti-Mtb activity in macrophages | EC50 ([1]; read-out: EC50 induction of autophagy (RFP-LC3 puncta per cell)): 90 nM; EIF-2α phosphorylation [11]: led to EIF-2α phosphorylation; activity against Mtb in vitro (REMA, in words) ([9]; Mtb H37Rv in culture, 4 days): active against Mtb in vitro at IC50s comparable to kanamycin |
| C=C(NC(=O)C(=C)NC(=O)c1ccc2c(n1)-c1coc(n1)C(=C)NC(=O)C(=C)NC(=O)c1nc(oc1C)C(=C)NC(=O)C(C(C)(C)O)NC(=O)C(=C)NC(=O)c1nc(oc1C)/C(=C/C)NC(=O)C(C(C)O)NC(=O)c1csc-2n1)C(N)=O (stereo not drawn) [BER, berninamycin] | also induced autophagy | – | – | – | – | – |
| C=C(NC(=O)c1csc(-c2nc3c(cc2O)-c2nc(cs2)C(=O)NC(C(C)O)C(=O)N/C(=C\C)c2nc(cs2)C(=O)NC2CC(O)C(=O)OCc4cccc5[nH]c(c(C)c45)C(=O)SCC(NC(=O)c4csc2n4)c2nc-3cs2)n1)C(N)=O (stereo not drawn) [NOS, nosiheptide] | induced autophagy at concentrations comparable to TSR | significantly increased the number of RFP-LC3 puncta per cell | no effect on FoxM1 levels | potent inhibitory effects on intracellular Mtb growth | no significant effect on their anti-Mtb activity in macrophages | EC50 [7]: 380 nM; direct inhibition of reconstituted 20S proteasome [8]: directly inhibited the proteasome; IC50 caspase-like activity [8]: low micromolar; IC50 chymotrypsin-like activity [8]: low micromolar; IC50 trypsin-like activity [8]: low micromolar; activity against Mtb in vitro (REMA, in words) ([9]; Mtb H37Rv in culture, 4 days): active against Mtb in vitro at IC50s comparable to kanamycin |
